Structures can show the parent of a compound that is named as a salt.
What was measured:
Format in all cases: biochemical
[1] = target: T1, recombinant human MAO-A (monoamine oxidase-A) (Homo sapiens, UniProt P21397); experiment: Activity on recombinant human MAO-A, Amplex Red method, 0.5 mM tyramine substrate; conditions: 0.5 mM tyramine, read-out: Inhibitory Activity (IC50, nM) MAO-A
T1 construct: purchased Sigma-Aldrich
T1 sequence (P21397 1-527): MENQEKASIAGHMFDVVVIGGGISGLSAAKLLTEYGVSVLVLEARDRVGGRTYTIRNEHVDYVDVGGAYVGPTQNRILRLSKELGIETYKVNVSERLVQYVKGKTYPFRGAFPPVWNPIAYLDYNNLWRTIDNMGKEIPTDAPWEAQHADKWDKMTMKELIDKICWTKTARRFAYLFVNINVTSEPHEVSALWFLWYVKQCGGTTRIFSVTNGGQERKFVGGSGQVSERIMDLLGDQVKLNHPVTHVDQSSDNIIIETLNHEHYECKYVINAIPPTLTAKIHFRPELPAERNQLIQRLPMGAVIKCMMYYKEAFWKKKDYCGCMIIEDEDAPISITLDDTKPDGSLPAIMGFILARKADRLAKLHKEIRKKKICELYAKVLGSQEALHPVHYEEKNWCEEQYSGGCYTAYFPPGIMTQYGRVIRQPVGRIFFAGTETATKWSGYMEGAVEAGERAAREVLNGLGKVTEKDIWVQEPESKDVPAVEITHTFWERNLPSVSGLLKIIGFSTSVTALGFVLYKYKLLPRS
Procedure: (§1) The compounds according to the present technology were evaluated in terms of activity on recombinant human VAP-1 (R&D systems) by measuring the level of hydrogen peroxide in horseradish peroxidase (HRP)-coupled reaction using Amplex Red Hydrogen Peroxide Assay Kit (Molecular Probes, Invitrogen, USA). The experiment was carried out at room temperature using benzylamine as a substrate. In the HRP-coupled reaction, hydrogen peroxide oxidation of 10-acetyl-3,7-dihydroxyphenoxazine (Amplex Red reagent) produces resorufin, which is a highly fluorescent compound. Briefly, the test compound was dissolved in dimethyl sulfoxide (DMSO) at a concentration of 20 mM. The dose-response assessment was made by 1:3 serial dilution in DMSO, thereby creating an 8 point curve. The concentration of the upper part was controlled according to the efficacy of the compounds, followed by dilution with a reaction buffer solution to obtain a final DMSO concentration less than 1%. To each well of a 96 black well plate, human VAP-1 purified in 50 mM sodium phosphate buffer solution (pH7.4) was added. The test compounds dissolved in DMSO were incubated with the human VAP-1 enzymes at 37° C. for 30 minutes. After 30-minute incubation, each well is added with a reaction mixture containing 200 uM Amplex Red reagent prepared from 50 mM sodium phosphate buffer solution (pH 7.4), 1 mM benzylamine, and 1 U/mL HRP. Fluorescence intensity was measured at several time points during 1-2 hours using a microplate reader (Flexstation3, Molecular Devices) under the wavelength condition exciting at 544 nm and reading the emission at 590 nm. The inhibitory effect of the compounds was measured as a decrease (%) in the signal rate as compared to the control group without any inhibitor (only diluted DMSO). Data was fixed to a logistic model with four variables and IC50 value was calculated using GraphPad Prism program.
(§2) In addition, the compounds according to the present technology were evaluated in terms of activity on a recombinant human MAO-A (monoamine oxidase-A, Sigma-Aldrich) and a recombinant human MAO-B (monoamine oxidase-B, Sigma-Aldrich) by using as substrates, 0.5 mM tyramine and 1 mM benzylamine, respectively, with a method similar to the activity evaluation method for recombinant human VAP-1. The compounds according to the present technology were also evaluated in terms of activity on a recombinant human DAO (diamine oxidase, R&D systems) by using as a substrate 1 mM putrescine with a method similar to the activity evaluation method for recombinant human VAP-1.

[2] = target: T2, recombinant human MAO-B (monoamine oxidase-B) (Homo sapiens, UniProt P27338); experiment: Activity on recombinant human MAO-B, Amplex Red method, 1 mM benzylamine substrate; conditions: 1 mM benzylamine, read-out: Inhibitory Activity (IC50, nM) MAO-B
T2 construct: purchased Sigma-Aldrich
T2 sequence (P27338 1-520): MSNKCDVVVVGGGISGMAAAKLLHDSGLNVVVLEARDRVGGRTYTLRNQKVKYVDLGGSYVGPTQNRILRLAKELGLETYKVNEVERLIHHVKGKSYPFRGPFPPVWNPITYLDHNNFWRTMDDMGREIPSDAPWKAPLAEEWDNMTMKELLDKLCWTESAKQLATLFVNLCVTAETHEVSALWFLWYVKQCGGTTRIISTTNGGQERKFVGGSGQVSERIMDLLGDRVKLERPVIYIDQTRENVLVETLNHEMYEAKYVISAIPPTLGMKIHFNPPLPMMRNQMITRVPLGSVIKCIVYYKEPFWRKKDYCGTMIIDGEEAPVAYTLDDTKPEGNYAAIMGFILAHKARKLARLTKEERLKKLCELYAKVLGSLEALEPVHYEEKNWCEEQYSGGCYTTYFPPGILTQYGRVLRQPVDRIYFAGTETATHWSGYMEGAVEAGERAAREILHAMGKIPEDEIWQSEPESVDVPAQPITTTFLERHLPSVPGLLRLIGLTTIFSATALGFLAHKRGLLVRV
Procedure: as §1, §2

[3] = target: T3, recombinant human DAO (diamine oxidase) (Homo sapiens, UniProt P19801); experiment: Activity on recombinant human DAO, Amplex Red method, 1 mM putrescine substrate; conditions: recombinant human DAO, 1 mM putrescine; * = between 10 and 100 nM, ** = between 300 and 1000 nM; read-out: Inhibitory Activity (IC50, nM) DAO
T3 construct: purchased R&D systems
T3 sequence (P19801 20-751): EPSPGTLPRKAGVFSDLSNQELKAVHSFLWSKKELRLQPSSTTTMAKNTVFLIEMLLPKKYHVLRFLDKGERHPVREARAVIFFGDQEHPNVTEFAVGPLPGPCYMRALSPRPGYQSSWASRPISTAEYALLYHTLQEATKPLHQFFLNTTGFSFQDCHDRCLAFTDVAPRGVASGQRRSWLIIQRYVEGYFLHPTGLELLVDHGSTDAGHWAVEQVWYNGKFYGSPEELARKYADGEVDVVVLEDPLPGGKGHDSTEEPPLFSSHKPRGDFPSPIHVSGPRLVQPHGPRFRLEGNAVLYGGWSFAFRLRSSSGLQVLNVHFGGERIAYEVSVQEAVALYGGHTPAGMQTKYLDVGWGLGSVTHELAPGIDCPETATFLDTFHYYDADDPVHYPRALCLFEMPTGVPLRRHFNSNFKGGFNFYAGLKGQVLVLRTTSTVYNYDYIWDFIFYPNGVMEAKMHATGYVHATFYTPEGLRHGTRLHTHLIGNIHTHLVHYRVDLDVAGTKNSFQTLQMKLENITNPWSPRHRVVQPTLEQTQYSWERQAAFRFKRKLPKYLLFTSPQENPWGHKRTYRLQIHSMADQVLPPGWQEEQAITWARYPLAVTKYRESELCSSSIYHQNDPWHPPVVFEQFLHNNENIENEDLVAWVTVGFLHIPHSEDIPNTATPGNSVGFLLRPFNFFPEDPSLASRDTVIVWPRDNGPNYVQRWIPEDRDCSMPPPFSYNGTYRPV
Procedure, shortened: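 Inhibition of recombinant human DAO (diamine oxidase, R&D systems) was assessed with the Amplex Red Hydrogen Peroxide Assay Kit. Hydrogen peroxide produced from 1 mM putrescine was detected through an HRP-coupled reaction that converts Amplex Red into fluorescent resorufin, read at 544 nm excitation and 590 nm emission. IC50 values came from four-parameter logistic fits in GraphPad Prism.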

[4] = target: T4, recombinant human VAP-1 (Homo sapiens, UniProt Q16853); experiment: Activity on recombinant human VAP-1, Amplex Red HRP-coupled hydrogen peroxide assay, benzylamine substrate; conditions: recombinant human VAP-1, benzylamine substrate, 30 min preincubation at 37° C.; read-out: Inhibitory Activity (IC50, nM) human VAP-1
T4 construct: purchased R&D systems
T4 sequence (Q16853 1-763): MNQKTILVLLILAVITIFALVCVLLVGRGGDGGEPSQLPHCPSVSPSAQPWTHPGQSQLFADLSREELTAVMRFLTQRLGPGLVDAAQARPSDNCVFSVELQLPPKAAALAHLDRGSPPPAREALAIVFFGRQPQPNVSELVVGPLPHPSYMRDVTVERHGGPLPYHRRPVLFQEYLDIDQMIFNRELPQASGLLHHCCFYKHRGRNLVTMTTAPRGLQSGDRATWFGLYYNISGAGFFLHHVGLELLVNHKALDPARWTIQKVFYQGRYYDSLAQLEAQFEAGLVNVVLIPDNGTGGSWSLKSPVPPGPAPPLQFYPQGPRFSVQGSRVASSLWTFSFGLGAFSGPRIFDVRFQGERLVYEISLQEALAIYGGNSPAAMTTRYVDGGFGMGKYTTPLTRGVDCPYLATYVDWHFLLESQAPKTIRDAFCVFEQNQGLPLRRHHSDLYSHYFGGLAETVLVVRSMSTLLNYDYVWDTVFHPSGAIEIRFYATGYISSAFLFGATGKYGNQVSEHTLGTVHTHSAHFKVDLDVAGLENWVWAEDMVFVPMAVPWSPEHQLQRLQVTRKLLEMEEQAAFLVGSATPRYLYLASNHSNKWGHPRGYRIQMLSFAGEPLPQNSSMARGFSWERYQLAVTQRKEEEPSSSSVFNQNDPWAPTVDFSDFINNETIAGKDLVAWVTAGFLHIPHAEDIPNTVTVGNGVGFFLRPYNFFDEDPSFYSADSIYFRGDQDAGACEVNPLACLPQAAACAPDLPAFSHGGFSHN
Procedure, shortened: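 Compounds were preincubated with purified enzyme in 50 mM sodium phosphate pH 7.4 at 37 °C for 30 min, then 200 uM Amplex Red, 1 mM benzylamine and 1 U/mL HRP were added. Resorufin fluorescence (ex 544/em 590 nm) was followed over 1-2 h; IC50 came from 4-parameter fits of signal-rate inhibition.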

| Structure (SMILES) | IC50 [1] [nM] | IC50 [2] [nM] | IC50 [3] [nM] | IC50 [4] [nM] |
| --- | --- | --- | --- | --- |
| Cc1cc(-n2cnn(C/C(=C/F)CN)c2=O)ccc1Br [Example 16, 2-[(2E)-2-(aminomethyl)-3-fluoroprop-2-en-1-yl]-4-(4-bromo-3-methylphenyl)-2,4-dihydro-3H-1,2,4-triazol-3-one hydrochloride] | 32000 | 141 | 12 | 0.74 |
| COc1cc(-n2cnn(C/C(=C\F)CN)c2=O)ccc1Br [Example 17, 2-[(2Z)-2-(aminomethyl)-3-fluoroprop-2-en-1-yl]-4-(4-bromo-3-methoxyphenyl)-2,4-dihydro-3H-1,2,4-triazol-3-one] | > 100000 | 406 | 31 | 2.7 |
| COc1cc(-n2cnn(C/C(=C/F)CN)c2=O)ccc1Br [Example 18, 2-[(2E)-2-(aminomethyl)-3-fluoroprop-2-en-1-yl]-4-(4-bromo-3-methoxyphenyl)-2,4-dihydro-3H-1,2,4-triazol-3-one hydrochloride] | > 100000 | 58 | 21 | 1.4 |
| NC/C(=C\F)Cn1ncn(-c2cc(F)c(Br)c(F)c2)c1=O [Example 20, 2-[(2E)-2-(aminomethyl)-3-fluoroprop-2-en-1-yl]-4-(4-bromo-3,5-difluorophenyl)-2,4-dihydro-3H-1,2,4-triazol-3-one hydrochloride] | > 100000 | > 10000 | 15 | 2.2 |
| NC/C(=C\F)Cn1ncn(-c2c(F)cc(Br)cc2F)c1=O [Example 22, 2-[(2E)-2-(aminomethyl)-3-fluoroprop-2-en-1-yl]-4-(4-bromo-2,6-difluorophenyl)-2,4-dihydro-3H-1,2,4-triazol-3-one hydrochloride] | 12000 | 146 | 420 | 1.4 |
| NC/C(=C\F)Cn1ncn(-c2cc(F)c(Br)cc2F)c1=O [Example 23, 2-[(2E)-2-(aminomethyl)-3-fluoroprop-2-en-1-yl]-4-(4-bromo-2,5-difluorophenyl)-2,4-dihydro-3H-1,2,4-triazol-3-one hydrochloride] | 5200 | 142 | 32 | 2.2 |
| NC/C(=C/F)Cn1ncn(-c2ccc(Br)nc2)c1=O [Example 24, 2-[(2Z)-2-(aminomethyl)-3-fluoroprop-2-en-1-yl]-4-(6-bromopyridin-3-yl)-2,4-dihydro-3H-1,2,4-triazol-3-one] | 6600 | 17 | 26 | 4.6 |

Continued by falling IC50 [1], values first:

| IC50 [1] [nM] | IC50 [2] [nM] | IC50 [3] [nM] | IC50 [4] [nM] | Structure (SMILES) |
| --- | --- | --- | --- | --- |
| 5200 | 35 | 38 | 0.96 | NC/C(=C\F)Cn1ncn(-c2ccc(Br)c(F)c2)c1=O [Example 14, 2-[(2E)-2-(aminomethyl)-3-fluoroprop-2-en-1-yl]-4-(4-bromo-3-fluorophenyl)-2,4-dihydro-3H-1,2,4-triazol-3-one hydrochloride] |
| 710 | 9.8 | 85 | 2.2 | Cc1cc(-n2cnn(C/C(=C\F)CN)c2=O)ccc1Br [Example 15, 2-[(2Z)-2-(aminomethyl)-3-fluoroprop-2-en-1-yl]-4-(4-bromo-3-methylphenyl)-2,4-dihydro-3H-1,2,4-triazol-3-one] |
| 400 | 25 | 333 | 7.3 | NC/C(=C/F)Cn1ncn(-c2c(F)cc(Br)cc2F)c1=O [Example 21, 2-[(2Z)-2-(aminomethyl)-3-fluoroprop-2-en-1-yl]-4-(4-bromo-2,6-difluorophenyl)-2,4-dihydro-3H-1,2,4-triazol-3-one hydrochloride] |
